This note sets out measurements from US8785460B2, “Tricyclic compounds and use thereof” (Takeda Pharmaceutical Company Limited, priority 2008, dated 2014).

The target of one series is T1, human CRF1 receptor (Homo sapiens, UniProt P34998).
T1 construct: expressed in transfected cells; host or cells: CHO cells (membrane fraction)
T1 sequence (P34998 24-415): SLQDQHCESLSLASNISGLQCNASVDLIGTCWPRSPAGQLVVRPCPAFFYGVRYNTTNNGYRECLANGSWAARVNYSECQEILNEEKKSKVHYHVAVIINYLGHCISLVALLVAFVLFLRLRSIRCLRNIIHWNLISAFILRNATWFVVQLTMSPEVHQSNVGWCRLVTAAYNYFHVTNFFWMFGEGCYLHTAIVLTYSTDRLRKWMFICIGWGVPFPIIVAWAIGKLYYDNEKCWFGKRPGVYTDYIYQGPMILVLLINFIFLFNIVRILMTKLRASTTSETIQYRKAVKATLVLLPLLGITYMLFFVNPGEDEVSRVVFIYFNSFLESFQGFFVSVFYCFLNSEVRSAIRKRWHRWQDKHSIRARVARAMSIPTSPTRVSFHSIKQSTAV
Nature of the series: Measurement of CRF Binding Inhibitory Rate (receptor binding experiment with 125I-CRF). The following applies: human CRF1 receptor expressing CHO cellular membrane fraction, 50 pM 125I-CRF, room temperature 1.5 hr, 0.05 nM to 10 μM of compound; read-out: IC50 values (CRF binding inhibition).

Bounds are passed on as bounds.

Turning to `CCC(CC)c1ccc(Cl)c2nc3n(c12)CCCCN3c1ccc(C(=O)N(C)C)cc1C` [Example 50, 4-[10-Chloro-7-(1-ethylpropyl)-2,3,4,5-tetrahydro-1H-[1,3]diazepino[1,2-a]benzimidazol-1-yl]-N,N,3-trimethylbenzamide], the melting point fell in the range of 113 to 114 °C. The IC50 on human CRF1 receptor is less than 1000 nM.

In turn, `CCC(CC)c1ccc(Cl)c2nc3n(c12)CCCCN3c1ccc(N(C)C)cc1C` [Example 51, 4-[10-Chloro-7-(1-ethylpropyl)-2,3,4,5-tetrahydro-1H-[1,3]diazepino[1,2-a]benzimidazol-1-yl]-N,N,3-trimethylaniline] returned a melting point of 174 to 175 °C. Besides, the IC50 at human CRF1 receptor is less than 1000 nM.

As for `CCC(CC)c1ccc(Cl)c2nc3n(c12)CCCCN3c1ccc(N(C)C)cc1OC(F)(F)F` [Example 53, 4-[10-Chloro-7-(1-ethylpropyl)-2,3,4,5-tetrahydro-1H-[1,3]diazepino[1,2-a]benzimidazol-1-yl]-N,N-dimethyl-3-(trifluoromethoxy)aniline], the melting point lay in the range of 158 to 159 °C. On human CRF1 receptor, the IC50 is less than 1000 nM.

For `CCC(CC)c1ccc(Cl)c2nc3n(c12)CCCCN3c1cccc2c1OC(F)(F)O2` [Example 54, 10-Chloro-1-(2,2-difluoro-1,3-benzodioxol-4-yl)-7-(1-ethylpropyl)-2,3,4,5-tetrahydro-1H-[1,3]diazepino[1,2-a]benzimidazole], the melting point lay within 156 to 158 °C. The IC50 at human CRF1 receptor was less than 1000 nM.

In turn, `CCC(CC)c1ccc(Cl)c2nc3n(c12)CCCCN3c1c(C)cc(Cl)cc1OC` [Example 56] showed a melting point of 196 to 198 °C. The IC50 at human CRF1 receptor is less than 1000 nM.

`CCC(CC)c1ccc(Cl)c2nc3n(c12)CCCCN3c1cnc(C#N)cc1C` [Example 59, 5-[10-Chloro-7-(1-ethylpropyl)-2,3,4,5-tetrahydro-1H-[1,3]diazepino[1,2-a]benzimidazol-1-yl]-4-methylpyridine-2-carbonitrile] displayed a melting point of 177 to 178 °C. Moreover, at human CRF1 receptor, the IC50 was less than 1000 nM.

The compound `CCC(CC)c1ccc(Cl)c2nc3n(c12)CCCCN3c1cnc(C(C)=O)cc1C` [Example 60, 1-{5-[10-Chloro-7-(1-ethylpropyl)-2,3,4,5-tetrahydro-1H-[1,3]diazepino[1,2-a]benzimidazol-1-yl]-4-methylpyridin-2-yl}ethanone] registered a melting point of 144 to 145 °C. On human CRF1 receptor, the 50% inhibitory concentration (IC50) was less than 1000 nM.

Regarding `CCC(CC)c1ccc(Cl)c2nc3n(c12)CCCCN3c1cnc(C(N)=O)cc1C` [Example 61, 5-[10-Chloro-7-(1-ethylpropyl)-2,3,4,5-tetrahydro-1H-[1,3]diazepino[1,2-a]benzimidazol-1-yl]-4-methylpyridine-2-carboxamide], the melting point fell in the range of 267 to 269 °C. Further, the IC50 at human CRF1 receptor is less than 1000 nM.

In turn, `CCC(CC)c1ccc(Cl)c2nc3n(c12)CCCCN3c1ncc(Cl)cc1Cl` [Example 62, 10-Chloro-1-(3,5-dichloropyridin-2-yl)-7-(1-ethylpropyl)-2,3,4,5-tetrahydro-1H-[1,3]diazepino[1,2-a]benzimidazole] displayed a melting point of 175 to 176 °C. Further, the concentration for half-maximal inhibition (IC50) at human CRF1 receptor is less than 1000 nM.

`CCC(CC)c1ccc(Cl)c2nc3n(c12)CCCCN3c1ncc(C(F)(F)F)cc1Cl` [Example 63, 10-Chloro-1-[3-chloro-5-(trifluoromethyl)pyridin-2-yl]-7-(1-ethylpropyl)-2,3,4,5-tetrahydro-1H-[1,3]diazepino[1,2-a]benzimidazole] registered a melting point of 108 to 110 °C. For the same compound, the half-inhibitory concentration (IC50) at human CRF1 receptor is less than 1000 nM.

Regarding `CCC(CC)c1ccc(Cl)c2nc3n(c12)CCCCN3c1ncc([N+](=O)[O-])cc1C` [Example 64, 10-Chloro-7-(1-ethylpropyl)-1-(3-methyl-5-nitropyridin-2-yl)-2,3,4,5-tetrahydro-1H-[1,3]diazepino[1,2-a]benzimidazole], the melting point lay in the range of 204 to 205 °C. Also, the IC50 on human CRF1 receptor was less than 1000 nM.

Compound `CCC(CC)c1ccc(Cl)c2nc3n(c12)CCCCN3c1ncc(N(C)C)cc1C` [Example 66, 6-[10-Chloro-7-(1-ethylpropyl)-2,3,4,5-tetrahydro-1H-[1,3]diazepino[1,2-a]benzimidazol-1-yl]-N,N,5-trimethylpyridin-3-amine] yielded a melting point of 188 to 190 °C. For the same compound, on human CRF1 receptor, the IC50 was less than 1000 nM.

In turn, `CCC(O)c1cccc2nc3n(c12)CCCCN3c1ccc(Cl)cc1Cl` (stereo not drawn) [Example 68, 1-[1-(2,4-Dichlorophenyl)-2,3,4,5-tetrahydro-1H-[1,3]diazepino[1,2-a]benzimidazol-7-yl]propan-1-ol] displayed a melting point of 241 to 243 °C. Further, the IC50 on human CRF1 receptor is less than 1000 nM.

Take `CCN(CC)c1cccc2nc3n(c12)CC(O)CCN3c1ccc(Cl)cc1Cl` (stereo not drawn) [Example 70, 1-(2,4-Dichlorophenyl)-7-(diethylamino)-2,3,4,5-tetrahydro-1H-[1,3]diazepino[1,2-a]benzimidazol-4-ol]: the melting point lay within 207 to 208 °C. For the same compound, on human CRF1 receptor, the IC50 is less than 1000 nM.

Compound `CCN(CC)c1cccc2nc3n(c12)CC(=O)CCN3c1ccc(Cl)cc1Cl` [Example 71, 1-(2,4-Dichlorophenyl)-7-(diethylamino)-2,3-dihydro-1H-[1,3]diazepino[1,2-a]benzimidazol-4(5H)-one] returned a melting point of 169 to 170 °C. Further, the half-maximal inhibitory concentration (IC50) on human CRF1 receptor was less than 1000 nM.

Take `CCN(CC)c1cccc2nc3n(c12)CC(CCO)N3c1ccc(Cl)cc1Cl` (stereo not drawn) [Example 74, 2-[1-(2,4-Dichlorophenyl)-5-(diethylamino)-2,3-dihydro-1H-imidazo[1,2-a]benzimidazol-2-yl]ethanol]: the melting point was in the range of 222 to 223 °C. For the same compound, at human CRF1 receptor, the IC50 is less than 1000 nM.

With `CCN(CC)c1cccc2nc3n(c12)CC(CO)N3c1ccc(Cl)cc1Cl` (stereo not drawn) [Example 76, [1-(2,4-Dichlorophenyl)-5-(diethylamino)-2,3-dihydro-1H-imidazo[1,2-a]benzimidazol-2-yl]methanol], the melting point lay in the range of 187 to 190 °C. Also, at human CRF1 receptor, the IC50 is less than 1000 nM.

In turn, `CCN(CC)c1cccc2nc3n(c12)CC(O)CN3c1ccc(Cl)cc1Cl` (stereo not drawn) [Example 77, 1-(2,4-Dichlorophenyl)-6-(diethylamino)-1,2,3,4-tetrahydropyrimido[1,2-a]benzimidazol-3-ol] returned a melting point of 239 to 242 °C. In addition, on human CRF1 receptor, the concentration for half-maximal inhibition (IC50) is less than 1000 nM.

`CCC(CC)c1ccc(Cl)c2nc3n(c12)CC(C)N3c1cnc(N(C)C)cc1C` (stereo not drawn) [Example 78, 5-[8-Chloro-5-(1-ethylpropyl)-2-methyl-2,3-dihydro-1H-imidazo[1,2-a]benzimidazol-1-yl]-N,N,4-trimethylpyridin-2-amine] came in with a melting point of 204 to 206 °C. Also, the IC50 at human CRF1 receptor is less than 1000 nM.

In the case of `CCN(CC)c1cccc2nc3n(c12)CCCN3c1cnc(OC)nc1OC` [Example 79, 1-(2,4-Dimethoxypyrimidin-5-yl)-N,N-diethyl-1,2,3,4-tetrahydropyrimido[1,2-a]benzimidazol-6-amine], the melting point lay in the range of 170 to 171 °C. For the same compound, on human CRF1 receptor, the IC50 was less than 1000 nM.

Turning to `CCN(CC)c1cccc2nc3n(c12)CCCN3c1nnc(Cl)cc1C` [Example 80, 1-(6-Chloro-4-methylpyridazin-3-yl)-N,N-diethyl-1,2,3,4-tetrahydropyrimido[1,2-a]benzimidazol-6-amine], the melting point was 193 to 195 °C. Further, the IC50 on human CRF1 receptor was less than 1000 nM.

In general, IC50 refers to the concentration at which inhibition is half-maximal. The melting point is the temperature of the solid-liquid transition.
